TGI data for twelve compounds are collected here from PubChem BioAssay (NCI).

SMILES strings stand for the structures.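 Method: 48-hour compound exposure of cells in 96-well plates, five concentrations, linear interpolation of endpoints. Definition used: TGI = concentration required for complete inhibition of growth.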

Test systems include HCC-2998 colon; SK-MEL-2 melanoma; SK-OV-3 ovarian; SF-539 CNS; MCF7 breast; 786-0 renal; U251 CNS; NCI/ADR-RES ovarian; CAKI-1 renal; UO-31 renal.
What all share (test): DTP human tumour cell line panel, 48 h

As a reminder, the TGI is the concentration at which net growth stops. Read a low TGI as greater sensitivity of the cells. Regarding `CC(=O)C(=C(I)I)c1ccccc1`, the TGI is 72 µM in the assay with HCC-2998 colon; 53.6 µM with SK-MEL-2 melanoma; > 100 µM with SK-OV-3 ovarian; 38.9 µM with SF-539 CNS; 46.8 µM in the assay on MCF7 breast; 40.3 µM with 786-0 renal. The TGI turned out to be 35.7 µM in the assay on U251 CNS, 49 µM in the assay on NCI/ADR-RES ovarian, 3.66 µM in the assay with CAKI-1 renal and 33.8 µM in the assay on UO-31 renal.

With `NNC(=O)c1ccccc1NC(=O)/C(=C/c1ccccc1)NC(=O)c1ccccc1`, the TGI in the assay with HCC-2998 colon, in the assay on SK-MEL-2 melanoma, with SK-OV-3 ovarian, in the assay with SF-539 CNS, with MCF7 breast and in the assay on 786-0 renal was > 100 µM in each case. Besides, the TGI in the assay on U251 CNS, with NCI/ADR-RES ovarian, in the assay with CAKI-1 renal and with UO-31 renal was > 100 µM each time.

In the case of `COC(=O)C(Cc1ccccc1)NC(=O)CNC(=O)CSc1nnc(COc2ccc(Cl)cc2)n1-c1ccccc1` (stereo not given), the TGI in the assay with HCC-2998 colon was 24.7 µM; with SK-MEL-2 melanoma, 33.8 µM; in the assay with SK-OV-3 ovarian, 28.6 µM; in the assay with SF-539 CNS, 34.3 µM; in the assay with MCF7 breast, 35.5 µM; with 786-0 renal, 30.5 µM. Also, the TGI came out at 32.8 µM in the assay with U251 CNS, 42 µM with NCI/ADR-RES ovarian, 25.3 µM in the assay with CAKI-1 renal and 3.28 µM with UO-31 renal.

Take `CCCCCc1c(CCCC)c(=O)[nH]c2cc(CNCC(OC)OC)ccc12`: the TGI in the assay on HCC-2998 colon was determined as 7.62 µM; in the assay with SK-MEL-2 melanoma, 28.4 µM; in the assay with SK-OV-3 ovarian it was 32.3 µM; in the assay with SF-539 CNS, 28.4 µM; in the assay on MCF7 breast, 27.8 µM; in the assay on 786-0 renal, 18.1 µM. The TGI with U251 CNS came out at 23.9 µM; in the assay with NCI/ADR-RES ovarian, 26.9 µM; in the assay with CAKI-1 renal, 24.6 µM; in the assay on UO-31 renal it was 26.4 µM.

For `COC(=O)CC1C2CC3C(C2=O)C13` (stereo not given), the TGI with HCC-2998 colon, in the assay on SK-MEL-2 melanoma, in the assay on SK-OV-3 ovarian, in the assay on SF-539 CNS, in the assay with MCF7 breast and in the assay on 786-0 renal was > 100 µM throughout. Moreover, the TGI in the assay on U251 CNS, in the assay with NCI/ADR-RES ovarian, with CAKI-1 renal and in the assay on UO-31 renal was > 100 µM in each case.

As to `Nc1cc(CO)cc(Nc2c3ccccc3nc3occc23)c1`, the TGI in the assay with HCC-2998 colon is > 100 µM; in the assay on SK-MEL-2 melanoma, 73.9 µM; in the assay with SK-OV-3 ovarian, > 100 µM; with SF-539 CNS, 69.6 µM; with MCF7 breast it was 66 µM; in the assay on 786-0 renal, 77.4 µM. The TGI was > 100 µM in the assay on U251 CNS, 62.6 µM in the assay with NCI/ADR-RES ovarian, 94.9 µM in the assay with CAKI-1 renal and > 100 µM with UO-31 renal.

On to `CC(=O)Nc1ccc(Nc2nc(=O)[nH]c(=O)[nH]2)cc1`, for which the concentration for total growth inhibition (TGI) in the assay with HCC-2998 colon, with SK-MEL-2 melanoma, in the assay on SK-OV-3 ovarian, in the assay on SF-539 CNS, with MCF7 breast and in the assay on 786-0 renal was > 100 µM in each case. Besides, the TGI with U251 CNS, in the assay with NCI/ADR-RES ovarian, with CAKI-1 renal and in the assay with UO-31 renal was > 100 µM each time.

Regarding `CC1(C)N=C(N)N=C(N)N1c1cccc(CSc2ccccc2)c1`, the TGI in the assay with HCC-2998 colon, in the assay on SK-MEL-2 melanoma, with SK-OV-3 ovarian, in the assay with SF-539 CNS, with MCF7 breast and with 786-0 renal was > 100 µM in each case. Also, the TGI in the assay with U251 CNS, with NCI/ADR-RES ovarian, in the assay with CAKI-1 renal and with UO-31 renal was > 100 µM throughout.

Regarding `COC1CCC(OC2CC(C3(C)CCC4(CC(O)C(C)C(C(C)/C=C(\C)C(=O)C(C)CC(C)C(=O)O)O4)O3)OC3(OC(C4OC(O)(CO)C(C)CC4C)CC3C)C2C)OC1C` (stereo not given), the TGI with HCC-2998 colon amounted to 1.61 µM; in the assay with SK-MEL-2 melanoma it was 0.576 µM; in the assay on SK-OV-3 ovarian it was 10.9 µM; with SF-539 CNS, 1.17 µM; in the assay with MCF7 breast it was 1.91 µM; with 786-0 renal, 1.21 µM. The total growth inhibition concentration (TGI) was determined as 0.817 µM in the assay with U251 CNS, 6.65 µM in the assay with NCI/ADR-RES ovarian, 2.21 µM in the assay on CAKI-1 renal and 5.91 µM in the assay with UO-31 renal.

Take `CSc1n[n+](C)cc(N)c1N`: the concentration for total growth inhibition (TGI) in the assay on HCC-2998 colon, in the assay on SK-MEL-2 melanoma, with SK-OV-3 ovarian, in the assay on SF-539 CNS, in the assay on MCF7 breast and in the assay on 786-0 renal was > 100 µM throughout. Also, the TGI in the assay with U251 CNS, in the assay with NCI/ADR-RES ovarian, in the assay with CAKI-1 renal and in the assay with UO-31 renal was > 100 µM throughout.

As to `CN(C)CCOc1ccc(-c2c(Oc3ccc(Cl)cc3)c(=O)oc3ccccc23)cc1`, the total growth inhibition concentration (TGI) in the assay with HCC-2998 colon was 12.3 µM; in the assay with SK-MEL-2 melanoma, 22.6 µM; with SK-OV-3 ovarian, 65.7 µM; with SF-539 CNS, > 62.5 µM; in the assay with MCF7 breast, > 28.3 µM; with 786-0 renal, > 27.9 µM. The TGI with U251 CNS was > 32.9 µM; in the assay with NCI/ADR-RES ovarian it was > 52.1 µM; in the assay on CAKI-1 renal it was 39.6 µM; in the assay on UO-31 renal, > 28.9 µM.

As for `COc1ccc(N=C/C=C/Nc2ccc(OC)cc2)cc1`, the TGI in the assay on HCC-2998 colon was determined as 22.1 µM; in the assay on SK-MEL-2 melanoma, 31 µM; in the assay with SK-OV-3 ovarian, 34.3 µM; in the assay with SF-539 CNS, 24.1 µM; in the assay with MCF7 breast it was 16.3 µM; in the assay on 786-0 renal, 15.6 µM. The TGI amounted to 10.2 µM in the assay on U251 CNS, 25 µM in the assay on NCI/ADR-RES ovarian, 12.5 µM in the assay with CAKI-1 renal and 10.8 µM with UO-31 renal.
